The results in this text go back to article PMC4054954 (Brain research, 2011).

Entries after “also recorded” stand apart in the source; their conditions may differ.

This test has as its system HT-22 cells. The test can be described thus: HT-22 cell-based glutamate cytoprotection assay. The settings on record: for cytoprotection / neuroprotection of HT-22 cells (in words): glutamate-induced oxidative stress cell death. Also on record: species or system murine.

As a reminder, the EC50 is the concentration giving half of the maximal effect.

Regarding `CC(C)=CCN1CC[C@]2(C)c3cc(O)ccc3C[C@H]1[C@H]2C` [(+)-pentazocine], the “cytoprotection / neuroprotection of HT-22 cells (in words)” value (shortened to “cytoprotection / neuroprotection”) is recorded as “not to be neuroprotective; also recorded: not cytoprotective”. Further, the EC50 (Mus musculus, HT-22, read-out: cytoprotective EC50) was greater than 4 µM. For `O=C(OCCN1CCOCC1)C1(c2ccccc2)CCCCC1` [PRE-084], the “cytoprotection / neuroprotection” value is “not cytoprotective”. Regarding `O=C(CCCN1CCC(O)(c2ccc(Cl)cc2)CC1)c1ccc(F)cc1` [haloperidol], the “cytoprotection / neuroprotection” value is recorded as “potent neuroprotective agent; also recorded: protective”.
